Assay results published in patent US8039586B1, “Cerebral organic anion transporter and its gene” (J-Pharma Co., Ltd., priority 1998, dated 2011).
Where two headings read alike, the source gives them in different places.

Legend:
rat OAT3 (rk1411) = target: T1, rat OAT3 (rk1411) (Rattus norvegicus, UniProt Q9R1U7); test: Michaelis-Menten dynamic test of organic anion transport with rk1411 in oocyte; assay type: cell-based; settings: transport by rk1411 (rat OAT3) in Xenopus oocyte, FIG. 2, read-out: Km
T1 construct: cRNA (RNA complementary to cDNA) was prepared in vitro from the plasmid carrying the clone (rk1411); expressed in transfected cells; host or cells: Xenopus oocytes injected with rk1411 cRNA
T1 sequence (Q9R1U7 1-536): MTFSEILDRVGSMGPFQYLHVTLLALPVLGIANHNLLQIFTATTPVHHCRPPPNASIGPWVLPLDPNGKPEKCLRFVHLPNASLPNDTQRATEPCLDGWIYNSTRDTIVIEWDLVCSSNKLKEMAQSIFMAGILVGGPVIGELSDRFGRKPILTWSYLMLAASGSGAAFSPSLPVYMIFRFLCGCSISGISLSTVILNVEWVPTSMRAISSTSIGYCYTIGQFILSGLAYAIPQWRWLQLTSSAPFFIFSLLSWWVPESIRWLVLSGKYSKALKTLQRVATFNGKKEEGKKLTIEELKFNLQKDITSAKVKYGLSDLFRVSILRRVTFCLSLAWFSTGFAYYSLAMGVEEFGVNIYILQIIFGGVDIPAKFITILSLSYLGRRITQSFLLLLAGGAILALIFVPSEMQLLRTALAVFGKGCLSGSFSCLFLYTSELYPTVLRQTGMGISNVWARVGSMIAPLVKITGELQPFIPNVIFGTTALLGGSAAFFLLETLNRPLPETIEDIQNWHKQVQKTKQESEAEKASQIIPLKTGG
From the text: The organic anion transport with rk1411 was subjected to the Michaelis-Menten dynamic test.

hOAT3 [1] = target: T2, hOAT3 (Homo sapiens, UniProt Q8TCC7); test: Uptake of radiolabeled compounds by Xenopus oocyte injected with hOAT3 cRNA; assay type: cell-based; settings: substrate 50 nM; one hour; versus control oocyte
T2 construct: cRNA (RNA complementary to cDNA) was prepared in vitro from the plasmid comprising the hOAT3 recovered above; expressed in transfected cells; host or cells: Xenopus oocytes injected with hOAT3 cRNA
T2 sequence (Q8TCC7 1-542 K271E/D366H): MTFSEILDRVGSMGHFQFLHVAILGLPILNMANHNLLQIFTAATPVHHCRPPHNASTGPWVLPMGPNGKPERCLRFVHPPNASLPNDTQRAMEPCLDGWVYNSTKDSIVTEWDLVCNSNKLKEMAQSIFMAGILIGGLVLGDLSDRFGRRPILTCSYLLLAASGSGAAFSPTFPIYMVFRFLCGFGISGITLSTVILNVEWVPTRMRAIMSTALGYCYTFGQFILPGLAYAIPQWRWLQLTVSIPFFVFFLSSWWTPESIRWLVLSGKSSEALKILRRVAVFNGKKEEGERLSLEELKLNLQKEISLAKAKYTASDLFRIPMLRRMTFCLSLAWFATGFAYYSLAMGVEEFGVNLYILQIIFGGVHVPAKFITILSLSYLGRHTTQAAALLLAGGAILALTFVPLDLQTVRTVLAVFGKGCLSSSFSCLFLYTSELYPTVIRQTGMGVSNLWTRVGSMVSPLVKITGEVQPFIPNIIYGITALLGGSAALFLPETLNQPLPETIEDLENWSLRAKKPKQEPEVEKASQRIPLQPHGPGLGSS
Protocol: By using T7 RNA polymerase, cRNA (RNA complementary to cDNA) was prepared in vitro from the plasmid comprising the hOAT3 recovered above by the method by Sekine, et al. (see Sekine, T., et al. J. Biol. Chem., Vol. 272, pp. 18526-9, 1997).
According to the already reported method of Sekine, et al. (Sekine, T., et al. J. Biol. Chem., Vol. 272, pp. 18526-9, 1997), the resulting hOAT3 cRNA was injected in the Xenopus oocyte; the oocyte was subjected to an uptake test with various radiolabeled organic anions and organic cations. The control oocyte cell (oocyte cell with no injection of hOAT3 cRNA) and the oocyte cell injected with hOAT3 cRNA were cultured in a buffer containing the following radiolabels for one hour, to assay the uptake of the radiolabels into the oocytes.
In each figure, open column expresses the case of the control oocyte used; and closed column expresses the case of the oocyte injected with hOAT3 cRNA.

hOAT3 [2] = target: T3, hOAT3 (Homo sapiens, UniProt Q8TCC7, D366H/K271E); test: Inhibition of 3H-estrone sulfate uptake in oocyte injected with hOAT3 cRNA; assay type: cell-based; parameters: cRNA (RNA complementary to cDNA) was prepared in vitro from the plasmid comprising the hOAT3 recovered above; expressed in transfected cells; host or cells: Xenopus oocytes injected with hOAT3 cRNA; settings: 50 nM 3H-estrone sulfate; non-radiolabeled compound at 500 μM or the concentration shown in FIG. 19; one hour
T3 sequence (Q8TCC7 1-542 K271E/D366H): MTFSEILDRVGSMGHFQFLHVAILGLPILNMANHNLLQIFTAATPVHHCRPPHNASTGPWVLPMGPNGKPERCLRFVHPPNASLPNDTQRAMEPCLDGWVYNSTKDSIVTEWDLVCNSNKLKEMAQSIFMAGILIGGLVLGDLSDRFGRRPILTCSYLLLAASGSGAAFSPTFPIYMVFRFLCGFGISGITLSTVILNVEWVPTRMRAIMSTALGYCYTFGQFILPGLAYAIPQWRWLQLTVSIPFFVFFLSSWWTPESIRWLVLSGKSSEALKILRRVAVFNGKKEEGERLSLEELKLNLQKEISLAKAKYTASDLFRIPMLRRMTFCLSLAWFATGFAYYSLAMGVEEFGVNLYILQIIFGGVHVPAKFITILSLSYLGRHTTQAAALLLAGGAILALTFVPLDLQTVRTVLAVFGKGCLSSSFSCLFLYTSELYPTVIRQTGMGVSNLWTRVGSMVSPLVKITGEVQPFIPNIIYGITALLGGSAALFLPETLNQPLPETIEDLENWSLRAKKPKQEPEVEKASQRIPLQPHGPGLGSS

hOAT3 [3] = target: T3, hOAT3; settings: transport by hOAT3 in Xenopus oocyte
From the text: Then, the hOAT3 transport of organic anions was examined at the Michaelis-Menten kinetic test.

[4] = substrate: CN(Cc1cnc2nc(N)nc(N)c2n1)c1ccc(C(=O)N[C@@H](CCC(=O)O)C(=O)O)cc1; test: cells, lysate or membranes; settings: other: transport by hOAT3 in Xenopus oocyte

estrone sulfate
Km (rat OAT3 (rk1411); listed as Estrone sulfate): 2.34 ± 0.2 µM
Km (rat OAT3 (rk1411)): 2.3 µM
uptake of radiolabeled compound by oocyte with hOAT3 expression (hOAT3 [1]): takes up
inhibition of the transport of 3H-estrone sulfate with hOAT3 (hOAT3 [2]): significantly inhibited
Km (hOAT3 [3]): 3.08 µM

B1: hOAT3 (Homo sapiens; D366H/K271E) (protein)
chain: MTFSEILDRVGSMGHFQFLHVAILGLPILNMANHNLLQIFTAATPVHHCRPPHNASTGPWVLPMGPNGKPERCLRFVHPPNASLPNDTQRAMEPCLDGWVYNSTKDSIVTEWDLVCNSNKLKEMAQSIFMAGILIGGLVLGDLSDRFGRRPILTCSYLLLAASGSGAAFSPTFPIYMVFRFLCGFGISGITLSTVILNVEWVPTRMRAIMSTALGYCYTFGQFILPGLAYAIPQWRWLQLTVSIPFFVFFLSSWWTPESIRWLVLSGKSSEALKILRRVAVFNGKKEEGERLSLEELKLNLQKEISLAKAKYTASDLFRIPMLRRMTFCLSLAWFATGFAYYSLAMGVEEFGVNLYILQIIFGGVHVPAKFITILSLSYLGRHTTQAAALLLAGGAILALTFVPLDLQTVRTVLAVFGKGCLSSSFSCLFLYTSELYPTVIRQTGMGVSNLWTRVGSMVSPLVKITGEVQPFIPNIIYGITALLGGSAALFLPETLNQPLPETIEDLENWSLRAKKPKQEPEVEKASQRIPLQPHGPGLGSS
Km [4]: 2.22 µM
